# In PMC5667785 (International Journal of Nanomedicine, 2017):
# Columns and labels:
# [1] = Cur stability in Krebs–Ringer intestinal circulation-perfusion solution; format: physicochemical; conditions: 2 hours at 37°C
# [2] = tested on: liver microsomal enzymes; conditions: within 30 minutes ref 14; cited from earlier work
# [3] = Critical micelle concentration by surface-tension measurements; format: physicochemical
Cur stability in the KR solution [1],Compound,Biotransformation of Cur to sulfate or glucuronide conjugates [2] [%],Critical micelle concentration [3] [µg/mL]
neither degraded,"COc1cc(/C=C/C(=O)CC(=O)/C=C/c2ccc(O)c(OC)c2)ccc1O [Cur, Curcumin]",90,–
–,TCA-PEG100-monostearate [S100-TCA],–,15.86 ± 0.53
